According to patent US20070032502A1, “Quinazoline derivatives useful in cancer treatment” (Schering Corporation, priority 2005, published 2007):
Read-outs that look alike come from different tables or passages of the source.

Assays:
[1] = tested on: MB468; test: Proliferation assay (Calcein AM viability, 72 hours); type: cell-based; conditions: read-out: PROLIFERATION ASSAY EC50 MB468
Protocol: This assay measures the growth suppression effects of small molecules in cells with mutant p53 vs. p53 null background. It uses Calcein AM to measure cellular viability. Cells (p53 null and mutant) are harvested and plated at 5000 cells per well in a 96-well tissue culture plate. The volume of cells in growth media is 100 µl. Serial dilutions (2× concentration) of compounds are then made and transferred to the plate of cells. The volume of compounds in the growth media is 100 μL. This dilution of compound with cells gives a 1× final dilution of compound (200 μL total volume). Plates are then incubated at 37° C. for 72 hours. Media is then poured off and Calcein AM is added at the appropriate concentration and the plates are incubated in the dark for 15 minutes and read for fluorescence. […] Compounds having EC50 values of 6 uM or higher have been assigned the letter “D”. These letter rating has been used throughout in the data tables above.

[2] = target: GST-p53 DNA binding domain (aa 92-aa 312) (Homo sapiens, UniProt P04637); test: Scintillation Proximity Assay (SPA), displacement of 3H STANDARD COMPOUND; conditions: for remaining activity at 2 µg/mL: 1 h
Source text: Most of the oncogenic mutants of the tumor suppressor protein p53 lack sequence specific DNA binding activity at physiological temperature due to conformational changes in the DNA binding domain. Small molecules and peptide which bind to the p53 DNA binding domain stabilize the conformation and restore DNA binding activity to mutant p53 protein (Science 286, 2507-2510, 1999; PNAS, 99, 937-942, 2002). Using ^3H STANDARD COMPOUND (which is ^3H of the compound #1 of the present invention; the * Carbon atom is the one labeled; structure shown below), [drawing 2234] a radio labeled small molecule which binds to p53, and the GST-p53 DNA binding domain (aa 92-aa 312), we have developed a quantitative screening assay. The assay is based on Scintillation Proximity Assay (SPA) technology, developed by Amersham Biosciences to measure molecular interactions. Briefly, the complex of GST-p53, ^3H STANDARD and Glutathione-SPA beads (Amersham Biosciences) are incubated with mixing for 1 hr at room temperature in the presence of the novel compounds to be screened. The signal is read on Microbeta. The compounds which have the ability to displace ^3H STANDARD COMPOUND are selected. Such molecules will stabilize the conformation and restore DNA binding activity to mutant p53 protein.
The above assay was used to determine the ability of the compounds of this invention to restore DNA binding activity to mutant p53 and the results for selected compounds have been given above in various tables.
A letter rating corresponding to % Residual total binding (T) @ 2 ug/mL of drug (i.e., compound of the present invention) from this assay have been assigned as follows: Compounds having % Residual T values of from 0% to less than 20% have been assigned the letter “A”. Compounds having % Residual T values of from 20% to less than 40% have been assigned the letter “B”. Compounds having % Residual T values of from 40% to less than 80% have been assigned the letter “C”. Compounds having % Residual T values of 80% or higher have been assigned the letter “D”. The exact % Residual T values @ 2 ug/mL for some illustrative compounds are shown below: […]

[3] = 2 ug/mL of drug, lower is better, read-out: % Residual T @ 2 ug/mL rating according to scintillation proximity assay (SPA)

Sequence of GST-p53 DNA binding domain (aa 92-aa 312) (P04637 92-312): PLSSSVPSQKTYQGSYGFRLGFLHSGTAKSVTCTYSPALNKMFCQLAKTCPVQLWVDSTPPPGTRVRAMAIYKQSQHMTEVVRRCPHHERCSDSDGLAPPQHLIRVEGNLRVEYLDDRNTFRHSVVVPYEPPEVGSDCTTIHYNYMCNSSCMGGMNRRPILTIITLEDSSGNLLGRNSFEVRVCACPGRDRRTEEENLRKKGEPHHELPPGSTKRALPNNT

CN(C)[C@@H]1CCN(c2nc(CN3CCN(C(c4ccc(Cl)cc4)c4ccc(Cl)cc4)CC3)nc3ccccc23)C1 [Example 30-26]
EC50 ([1]; MB468): > 6 µM
remaining activity at 2 µg/mL ([2]; read-out: SPA ASSAY (% residual T @ 2 ug/mL of drug)): 40 to 80%

COC(=O)[C@@H](Nc1nc(CN2CCN(C(=O)Nc3ccc(C(C)C)cc3)CC2)nc2ccccc12)C(C)C [Example 20-29]
EC50 ([1]; MB468 cells): 4 to 6 µM
SPA Assay (% residual T @ 2 ug/mL of drug) ([2]; 2 ug/mL of drug): B (Compounds having % Residual T values of from 20% to less than 40% have been assigned the letter “B”)
remaining activity at 2 µg/mL ([2]; 2 ug/mL of drug, lower is better, read-out: SPA ASSAY % Residual T @ 2 ug/mL of drug (Average of)): 39.5%

CN(CCC1C=Nc2ccccc21)c1nc(CN2CCN(C(c3ccc(Cl)cc3)c3ccc(Cl)cc3)CC2)nc2ccccc12 (centres unmarked) [Example 30-18]
EC50 ([1]; MB468): 2 to 4 µM

Clc1ccc(C(c2ccc(Cl)cc2)N2CCN(Cc3nc(N4CCN(c5ccccc5)CC4)c4ccccc4n3)CC2)cc1 [Example 30-15]
EC50 ([1]; MB468): 4 to 6 µM

CN(C)CC[C@H](Nc1nc(CN2CCN(C(c3ccc(Cl)cc3)c3ccc(Cl)cc3)CC2)nc2ccccc12)C(N)=O [Example 43, 2(S)-(−)-2-(2-{4-[BIS-(4-CHLOROPHENYL)METHYL]PIPERAZIN-1-YLMETHYL}QUINAZOLIN-4-YLAMINO)-4-DIMETHYLAMINOBUTYRAMIDE]
remaining activity at 2 µg/mL [2, 3]: 40 to 80%

Clc1ccc(C(c2ccc(Cl)cc2)N2CCN(Cc3nc(N4CCC(Cc5ccccc5)CC4)c4ccccc4n3)CC2)cc1 [Example 30-19]
EC50 ([1]; MB468): 4 to 6 µM

CN(C)CCCNc1nc(CN2CCN(C(c3ccccc3)c3ccc(OC(F)(F)F)cc3)CC2)nc2ccccc12 (centres unmarked) [Example 11-2]
EC50 ([1]; 72 h, MB468 cells, 72 hours): 1.6 µM

Clc1ccc(C(c2ccc(Cl)cc2)N2CCN(Cc3nc(N4CCCCCC4)c4ccccc4n3)CC2)cc1 [Example 30-5]
EC50 ([1]; MB468): 2 to 4 µM

CCOC(=O)[C@H](CCN(C)C)Nc1nc(CN2CCN(C(c3ccc(Cl)cc3)c3ccc(Cl)cc3)CC2)nc2ccccc12 [Example 44, 2(S)-(+)-2-(2-{4-[bis-(4-chlorophenyl)methyl]piperazin-1-ylmethyl}quinazoline-4-ylamino)-4-dimethylaminobutyric acid ethyl ester]
remaining activity at 2 µg/mL [2, 3]: 40 to 80%

CN(C)CCCC[C@H](Nc1nc(CN2CCN(C(c3ccc(Cl)cc3)c3ccc(Cl)cc3)CC2)nc2ccccc12)C(N)=O [Example 47, 2(S)-(+)-2-(2-{4-[BIS-(4-CHLOROPHENYL)METHYL]PIPERAZIN-1-YLMETHYL}QUINAZOLIN-4-YLAMINO)-6-DIMETHYLAMINOHEXANAMIDE]
remaining activity at 2 µg/mL [2, 3]: 40 to 80%

CN(C)CCC[C@H](Nc1nc(CN2CCN(C(c3ccc(Cl)cc3)c3ccc(Cl)cc3)CC2)nc2ccccc12)C(N)=O [Example 46, 2(S)-(+)-2-(2-{4-[BIS-(4-CHLOROPHENYL)METHYL]PIPERAZIN-1-YLMETHYL}QUINAZOLIN-4-YLAMINO)-5-DIMETHYLAMINOPENTANAMIDE]
remaining activity at 2 µg/mL [2, 3]: > 80%

COc1ccc(/C=C/c2nc(NCCCN(C)C)c3ccccc3n2)cc1 [CP-31398, reference compound]
EC50 ([1]; 72 h, MB468 cells, 72 hours): 4.1 µM

CC(C)COC(=O)[C@H](CCCN(C)C)Nc1nc(CN2CCN(C(c3ccc(Cl)cc3)c3ccc(Cl)cc3)CC2)nc2ccccc12 [Example 45, 2(S)-(−)-2-(2-{4-[BIS-(4-CHLOROPHENYL)METHYL]PIPERAZIN-1-YLMETHYL}QUINAZOLIN-4-YLAMINO)-5-DIMETHYLAMINOPENTANOIC ACID ISOBUTYL ESTER]
remaining activity at 2 µg/mL [2, 3]: > 80%

Clc1ccc(C(c2ccc(Cl)cc2)N2CCN(Cc3nc(N4CCN(Cc5ccccc5)CC4)c4ccccc4n3)CC2)cc1 [Example 30-20]
EC50 ([1]; MB468): 2 to 4 µM

CN(Cc1ccccc1)c1nc(CN2CCN(C(c3ccc(Cl)cc3)c3ccc(Cl)cc3)CC2)nc2ccccc12 [Example 30-11]
EC50 ([1]; MB468): > 6 µM

Clc1ccc(C(c2ccc(Cl)cc2)N2CCN(Cc3nc(N4CCc5ccccc5C4)c4ccccc4n3)CC2)cc1 [Example 30-12]
EC50 ([1]; MB468): > 6 µM

Clc1ccc(C(c2ccc(Cl)cc2)N2CCN(Cc3nc(N4CCN(c5ncccn5)CC4)c4ccccc4n3)CC2)cc1 [Example 30-17]
EC50 ([1]; MB468): > 6 µM
